Source: patent US4691024A, “New mitomycin derivatives, preparation thereof and pharmaceutical compositions containing them” (priority 1984, dated 1987)
≈ marks a conversion by molar mass, not a printed value. Where a name gives a salt, the structure may show the parent alone. Read-outs that look alike come from different tables or passages of the source.

Tests used:
Type in all cases: cell-based
[1] = test system: Streptococcus faecalis ATCC 10541; assay: Antibacterial activity, minimum growth inhibitory concentration by agar dilution method (SF); details: Enterococcus faecalis
Description: (§1) The various compounds of formula (I) of Examples 1-26 were tested for antibacterial activity against 6 microorganisms. […]. In this table, the following symbols are used:
SF: Streptococcus faecalis ATCC 10541

[2] = test system: Staphylococcus aureus ATCC 6538P; assay: Antibacterial activity, minimum growth inhibitory concentration by agar dilution method (SA); details: ATCC6538P
Description: as §1
SA: Staphylococcus aureus ATCC 6538P

[3] = test system: Bacillus subtilis 10707; assay: Antibacterial activity, minimum growth inhibitory concentration by agar dilution method (BS)
Description: as §1
BS: Bacillus subtilis 10707

[4] = test system: Proteus vulgaris ATCC 6897; assay: Antibacterial activity, minimum growth inhibitory concentration by agar dilution method (PV)
Description: as §1
PV: Proteus vulgaris ATCC 6897

[5] = test system: Shigella sonnei ATCC 9290; assay: Antibacterial activity, minimum growth inhibitory concentration by agar dilution method (SS)
Description: as §1
SS: Shigella sonnei ATCC 9290

[6] = test system: Klebsiella pneumoniae ATCC 10031; assay: microbe, parasite or virus in culture; details: ATCC10031, pH 7, read-out: MIC, Klebsiella pneumoniae (KP)
Description: In this table, the following symbols are used:
KP: Klebsiella pneumoniae ATCC 10031

[7] = ATCC10541, pH 7, read-out: MIC, Streptococcus faecalis (SF)
[8] = pH 7, read-out: MIC, Staphylococcus aureus (SA)
[9] = Bacillus subtilis, 10707, pH 7, read-out: MIC, Bacillus subtilis (BS)
[10] = ATCC6897, pH 7, read-out: MIC, Proteus vulgaris (PV)
[11] = ATCC9290, pH 7, read-out: MIC, Shigella sonnei (SS)

Compound `CO[C@@]12[C@H](COC(N)=O)C3=C(C(=O)C(C)=C(NCCSSC[C@H](NC(C)=O)C(=O)O)C3=O)N1C[C@@H]1N[C@@H]12` [Compound 19, 7-N-[2-[(N-Acetyl-L-cystein-S-yl)thio]ethyl]mitomycin C potassium salt] has an MIC [1, 7] of 1.3 µg/mL, an MIC [2, 8] of 0.63 µg/mL and an MIC [3, 9] of 0.08 µg/mL. For the same compound, the MIC [4, 10] was 2.5 µg/mL, the MIC [5, 11] was > 20 µg/mL and the MIC [6] was 0.63 µg/mL.

Compound `CO[C@@]12[C@H](COC(N)=O)C3=C(C(=O)C(C)=C(N)C3=O)N1C[C@@H]1N[C@@H]12` [MM-C, Mitomycin C, reference compound] has an MIC ([1]; ATCC10541, agar dilution method, pH 7.0, read-out: MIC, Streptococcus faecalis (SF)) of 0.04 µg/mL (≈ 0.12 µM), an MIC ([2]; agar dilution method, pH 7.0, read-out: MIC, Staphylococcus aureus (SA)) of 0.02 µg/mL (≈ 0.0598 µM) and an MIC ([3]; Bacillus subtilis, 10707, agar dilution method, pH 7.0, read-out: MIC, Bacillus subtilis (BS)) of 0.01 µg/mL (≈ 0.0299 µM). It also gave an MIC ([4]; ATCC6897, agar dilution method, pH 7.0, read-out: MIC, Proteus vulgaris (PV)) of 0.04 µg/mL (≈ 0.12 µM) and an MIC ([5]; ATCC9290, agar dilution method, pH 7.0, read-out: MIC, Shigella sonnei (SS)) of 1.3 µg/mL (≈ 3.89 µM).

Compound `CO[C@@]12[C@H](COC(N)=O)C3=C(C(=O)C(C)=C(NCCSSc4ccc([N+](=O)[O-])cc4)C3=O)N1C[C@@H]1N[C@@H]12` [Compound 8, 7-N-[2-(4-Nitrophenyldithio)ethyl]mitomycin C] has an MIC [1, 7] of 0.16 µg/mL (≈ 0.292 µM), an MIC [2, 8] of 0.16 µg/mL (≈ 0.292 µM) and an MIC [3, 9] of 0.08 µg/mL (≈ 0.146 µM). It also gave an MIC [4, 10] of 2.5 µg/mL (≈ 4.57 µM), an MIC [5, 11] of 5 µg/mL (≈ 9.13 µM) and an MIC [6] of 1.3 µg/mL (≈ 2.37 µM).

`CO[C@@]12[C@H](COC(N)=O)C3=C(C(=O)C(C)=C(NCCSSc4c(F)c(F)cc(F)c4F)C3=O)N1C[C@@H]1N[C@@H]12` [Compound 13, 7-N-[2-(2,3,5,6-Tetrafluorophenyldithio)ethyl]mitomycin C] showed an MIC [1, 7] of 0.31 µg/mL (≈ 0.54 µM), an MIC [2, 8] of 0.16 µg/mL (≈ 0.278 µM) and an MIC [3, 9] of 0.02 µg/mL (≈ 0.0348 µM). For the same compound, the MIC [4, 10] was 5 µg/mL (≈ 8.7 µM), the MIC [5, 11] was 10 µg/mL (≈ 17.4 µM) and the MIC [6] was 0.63 µg/mL (≈ 1.1 µM).

`CC1=C(NCCSSC[C@H](NC(=O)CC[C@H](N)C(=O)O)C(=O)NCC(=O)O)C(=O)C2=C(C1=O)N1C[C@H]3[C@H](N3C)[C@]1(O)[C@H]2COC(N)=O` (stereo partly drawn) [Compound 23, 7-N-[2-[(γ-L-glutamyl-L-cysteinylglycin-S-yl)thio]ethyl]-mitomycin D potassium salt] gave an MIC [1, 7] of 6.3 µg/mL, an MIC [2, 8] of 6.3 µg/mL and an MIC [3, 9] of 6.3 µg/mL. It also gave an MIC [4, 10] of 13 µg/mL.

For `CO[C@@]12[C@H](COC(N)=O)C3=C(C(=O)C(C)=C(NCCSSCCC(N)C(=O)O)C3=O)N1C[C@@H]1N[C@@H]12` (mixture of isomers) [Compound 24, 7-N-[2-[(DL-Homocystein-S-yl)thio]ethyl]mitomycin C], the MIC [1, 7] was 0.63 µg/mL, the MIC [2, 8] was 0.08 µg/mL and the MIC [3, 9] was < 0.02 µg/mL. For the same compound, the MIC [4, 10] was 1.3 µg/mL, the MIC [5, 11] was 40 µg/mL and the MIC [6] was 0.31 µg/mL.

With `CO[C@@]12[C@H](COC(N)=O)C3=C(C(=O)C(C)=C(NCCSSc4ccc(NC(C)=O)cc4)C3=O)N1C[C@H]1[C@@H]2N1C` (some centres unmarked) [Compound 6, 7-N-[2-(4-Acetamidophenyldithio)ethyl]porfiromycin] the MIC [1, 7] was 0.63 µg/mL (≈ 1.1 µM), the MIC [2, 8] was 1.3 µg/mL (≈ 2.27 µM) and the MIC [3, 9] was 0.08 µg/mL (≈ 0.139 µM). The MIC [6] was > 20 µg/mL.

For `CO[C@@]12[C@H](COC(N)=O)C3=C(C(=O)C(C)=C(NCCSSc4ccccc4)C3=O)N1C[C@@H]1N[C@@H]12` [Compound 1, 7-N-[2-(Phenyldithio)ethyl]mitomycin C], the MIC [1, 7] was 0.02 µg/mL (≈ 0.0398 µM), the MIC [2, 8] was 0.02 µg/mL (≈ 0.0398 µM) and the MIC [3, 9] was < 0.01 µg/mL. The MIC [4, 10] was 1.3 µg/mL (≈ 2.59 µM), the MIC [5, 11] was 20 µg/mL (≈ 39.8 µM) and the MIC [6] was 0.31 µg/mL (≈ 0.617 µM).

In the case of `CCOC(=O)CNC(=O)[C@H](CSSCCNC1=C(C)C(=O)C2=C(C1=O)[C@@H](COC(N)=O)[C@@]1(OC)[C@H]3N[C@H]3CN21)NC(=O)CC[C@H](N)C(=O)O` [Compound 25, 7-N-[2-[(γ-L-Glutamyl-L-cysteinyl-ethyl-glycinat-S-yl)thio]ethyl]mitomycin C], the MIC [1, 7] is reported as 0.63 µg/mL (≈ 0.866 µM), the MIC [2, 8] is reported as 0.16 µg/mL (≈ 0.22 µM) and the MIC [3, 9] is reported as 0.04 µg/mL (≈ 0.055 µM). It also gave an MIC [4, 10] of 10 µg/mL (≈ 13.7 µM) and an MIC [6] of 2.5 µg/mL (≈ 3.43 µM).

For `CO[C@@]12[C@H](COC(N)=O)C3=C(C(=O)C(C)=C(NCCSSc4ccc(C)cc4)C3=O)N1C[C@@H]1N[C@@H]12` [Compound 10, 7-N-[2-(4-Methylphenyldithio)ethyl]mitomycin C], the MIC [1, 7] was 0.08 µg/mL (≈ 0.155 µM), the MIC [2, 8] was 0.04 µg/mL (≈ 0.0774 µM) and the MIC [3, 9] was 0.02 µg/mL (≈ 0.0387 µM). The MIC [4, 10] was 2.5 µg/mL (≈ 4.84 µM), the MIC [5, 11] was > 20 µg/mL and the MIC [6] was 1.3 µg/mL (≈ 2.52 µM).

`CCOC(=O)CNC(=O)[C@H](CSSCCNC1=C(C)C(=O)C2=C(C1=O)[C@H](COC(N)=O)[C@@]1(O)[C@@H]3[C@H](CN21)N3C)NC(=O)CC[C@H](N)C(=O)O` (some centres unmarked) [Compound 26] showed an MIC [1, 7] of 13 µg/mL (≈ 17.9 µM), an MIC [2, 8] of 6.3 µg/mL (≈ 8.66 µM) and an MIC [3, 9] of 1.6 µg/mL (≈ 2.2 µM). The MIC [4, 10] was 13 µg/mL (≈ 17.9 µM) and the MIC [6] was 25 µg/mL (≈ 34.3 µM).
